Read-outs that look alike come from different tables or passages of the source.
Tests used:
[1] = Phase II study: safety (adverse events); assay type: in vivo, human; conditions: oral, 2 g once daily for 8 weeks
Text: Subjects visited the clinic on 6 occasions: at screening, baseline, week 2, week 4, week 8 (end of treatment/early termination) and week 10 (follow-up). All subjects exited the study at the week 10 visit. The primary efficacy variable was the proportion of patients achieving an IGA of 0 (clear) or 1 (almost clear), and a decrease of at least 2 points in IGA at week 8. Secondary efficacy variables included: IGA at other visits, pruritus (obtained from the SCORAD visual analog scale), EASI, BSA, POEM, DLQI, SCORAD and TEWL (for selected sites only). Safety was assessed through adverse events, physical examination, vital signs and safety laboratory tests (including pregnancy tests for women of childbearing potential). Pharmacokinetic samples were obtained at Baseline (Day 0), week 4 and week 8 visits in order to measure total and free DGLA plasma trough levels. Separate plasma samples were retained for later analysis of total fatty acid profile and interleukin profile.
Laboratory tests were performed at screening, Day 0, Week 4 and Week 8. If Week 8 results indicated a clinically significant change from baseline, laboratory tests were also performed at Week 10. […]
Efficacy was evaluated on the basis of the ITT population and analyses were performed based on the randomized treatment and not on the treatment received. […]

[2] = Phase one study part 1: single dose plasma PK of free and total DGLA, fasted; assay type: in vivo, human; conditions: for half-life / Tmax: both sexes, human, plasma, oral; for half-life: read-out: t1/2, median, free DGLA, baseline-corrected plasma (converted)
Description: A single-center, double-blind, randomized, placebo-controlled, two part Phase one study was performed in healthy male and female subjects aged 18 to 45 years inclusive. The primary objective of this study was to assess the safety and plasma pharmacokinetics (PK) of orally administered single doses and orally administered multiple doses of DS107G capsules (once daily for 28 days) in healthy subjects.
Subjects were randomly assigned in a 3:1 ratio of DG107G to placebo by block randomization. Single dose part one of the study comprised three cohorts of eight subjects each, with the addition of Cohort four based on evaluation of the safety data of Cohort three by the Safety Monitoring Committee (SMC). A single oral dose of DS107G or matching placebo was administered to fasted subjects in Cohorts one to three (500, 1000, and 2000 mg, respectively) in parallel; subjects in Cohort four were administered a dose of 4000 mg following completion of Cohort three. Subjects in Cohort two received 1000 mg or matching placebo in the fed state at 14 days after the first dose.
Safety assessments were monitored throughout the study.
In Part one of the study, subjects in Cohorts one to three were administered a single dose of study drug (either 500-, 1000-, or 2000-mg as 500-mg DS107G capsules or matching placebo capsules) in parallel on study Day 1 after at least an 8-hour fast, according to Table 20. Cohort 4 was initiated following the review of safety data from Cohort 3 by the SMC.
Analysis of populations included the following: • The Intention-to-Treat (ITT) population consists of all randomized subjects who had been administered at least 1 dose of study drug. • The Per Protocol (PP) population consists of all subjects in the ITT population who had no major protocol violation, as defined in the SAP. • The PK population contains all subjects included in the PP population who had evaluable PK data derived from plasma. A plasma concentration observation was considered a valid, evaluable measurement if the following data were available: study identification number, randomization number, date and time of sampling, dose and concentration. A series of such measurements from the same sample were considered complete if each protocol prescribed concentration was evaluable. Plasma PK data were evaluable by definition if the data contained a complete series of observations. Any missing plasma PK observation would result in incomplete PK data, thus a subject with any missing plasma PK observation was excluded from the PK population. Subjects randomized to placebo were also excluded from the PK population.

## CCCCC/C=C\C/C=C\C/C=C\CCCCCCC(=O)O [DS107G, Dihomo gamma linolenic acid]
[1]
  drug related Serious Adverse Events: no drug related Serious Adverse Events
  tolerability: very well tolerated
[2]; 500 mg single dose
  AUC0-24, mean, free DGLA, baseline-corrected plasma: 2728.1 ng·h/mL
  AUC0-24/Dose, mean, free DGLA, baseline-corrected plasma: 5.46 h/kL
  AUC0-24/Dose, mean, total DGLA, baseline-corrected plasma: 79.11 h/kL
  AUC0-inf, mean, free DGLA, baseline-corrected plasma: 21483.3 ng·h/mL
  AUC0-inf/Dose, mean, free DGLA, baseline-corrected plasma: 42.97 h/kL
  AUC0-inf/Dose, mean, total DGLA, baseline-corrected plasma: 8831.93 h/kL
  CL/F, mean, free DGLA, baseline-corrected plasma: 0.0306 kL/h
  Cmax, mean, free DGLA, baseline-corrected plasma: 934.6 ng/mL
  Cmax/Dose, mean, free DGLA, baseline-corrected plasma: 1.869 kL⁻¹
  Cmax/Dose, mean, total DGLA, baseline-corrected plasma: 14.400 kL⁻¹
  λz, mean, free DGLA, baseline-corrected plasma: 0.0035 h⁻¹
  λz, mean, total DGLA, baseline-corrected plasma: 0.0013 h⁻¹
  half-life: 206 h
[2]; 1000 mg single dose
  AUC0-24, mean, free DGLA, baseline-corrected plasma: 3998.5 ng·h/mL
  AUC0-24/Dose, mean, free DGLA, baseline-corrected plasma: 4.00 h/kL
  AUC0-24/Dose, mean, total DGLA, baseline-corrected plasma: 215.37 h/kL
  AUC0-inf, mean, free DGLA, baseline-corrected plasma: 218955.6 ng·h/mL
  AUC0-inf/Dose, mean, free DGLA, baseline-corrected plasma: 218.96 h/kL
  AUC0-inf/Dose, mean, total DGLA, baseline-corrected plasma: 4031.41 h/kL
  CL/F, mean, free DGLA, baseline-corrected plasma: 0.1866 kL/h
  Cmax, mean, free DGLA, baseline-corrected plasma: 1602.8 ng/mL
  Cmax/Dose, mean, free DGLA, baseline-corrected plasma: 1.603 kL⁻¹
  Cmax/Dose, mean, total DGLA, baseline-corrected plasma: 15.750 kL⁻¹
  λz, mean, free DGLA, baseline-corrected plasma: 0.0487 h⁻¹
  λz, mean, total DGLA, baseline-corrected plasma: 0.0136 h⁻¹
  half-life: 28.3 h
[2]; 2000 mg single dose
  AUC0-24, mean, free DGLA, baseline-corrected plasma: 6429.0 ng·h/mL
  AUC0-24/Dose, mean, free DGLA, baseline-corrected plasma: 3.21 h/kL
  AUC0-24/Dose, mean, total DGLA, baseline-corrected plasma: 105.25 h/kL
  AUC0-inf, mean, free DGLA, baseline-corrected plasma: 26877.0 ng·h/mL
  AUC0-inf/Dose, mean, free DGLA, baseline-corrected plasma: 13.44 h/kL
  AUC0-inf/Dose, mean, total DGLA, baseline-corrected plasma: 1138.25 h/kL
  CL/F, mean, free DGLA, baseline-corrected plasma: 0.1339 kL/h
  Cmax, mean, free DGLA, baseline-corrected plasma: 2074.0 ng/mL
  Cmax/Dose, mean, free DGLA, baseline-corrected plasma: 1.037 kL⁻¹
  Cmax/Dose, mean, total DGLA, baseline-corrected plasma: 8.867 kL⁻¹
  λz, mean, free DGLA, baseline-corrected plasma: 0.0200 h⁻¹
  λz, mean, total DGLA, baseline-corrected plasma: 0.0084 h⁻¹
  half-life: 57.3 h
[2]; 4000 mg single dose
  AUC0-24, mean, free DGLA, baseline-corrected plasma: 9436.8 ng·h/mL
  AUC0-24/Dose, mean, free DGLA, baseline-corrected plasma: 2.36 h/kL
  AUC0-24/Dose, mean, total DGLA, baseline-corrected plasma: 109.44 h/kL
  AUC0-inf, mean, free DGLA, baseline-corrected plasma: 17113.6 ng·h/mL
  AUC0-inf/Dose, mean, free DGLA, baseline-corrected plasma: 4.28 h/kL
  AUC0-inf/Dose, mean, total DGLA, baseline-corrected plasma: 1493.38 h/kL
  CL/F, mean, free DGLA, baseline-corrected plasma: 0.2420 kL/h
  Cmax, mean, free DGLA, baseline-corrected plasma: 3021.8 ng/mL
  Cmax/Dose, mean, free DGLA, baseline-corrected plasma: 0.755 kL⁻¹
  Cmax/Dose, mean, total DGLA, baseline-corrected plasma: 6.471 kL⁻¹
  λz, mean, free DGLA, baseline-corrected plasma: 0.0603 h⁻¹
  λz, mean, total DGLA, baseline-corrected plasma: 0.0102 h⁻¹
  half-life: 67.5 h
[2]; 500 mg single dose, read-out: tmax, median, free DGLA, baseline-corrected plasma
  Tmax: 4 h
[2]; 1000 mg single dose, read-out: tmax, median, free DGLA, baseline-corrected plasma
  Tmax: 4 h
[2]; 2000 mg single dose, read-out: tmax, median, free DGLA, baseline-corrected plasma
  Tmax: 4 h
[2]; 4000 mg single dose, read-out: tmax, median, free DGLA, baseline-corrected plasma
  Tmax: 4 h
[2]; single dose 500-4000 mg, read-out: median time to maximum concentration (Tmax), free DGLA
  Tmax: 4 h
[2]; single dose 500-4000 mg
  dose dependence of mean baseline-corrected Cmax and AUC0-24, free and total DGLA: increased in a linear manner
